Source: US20230399358A1, “IMMUNOGLOBULIN PURIFICATION PEPTIDES AND THEIR USE” (North Carolina State University, priority 2019, published 2023)
Where two headings read alike, the source gives them in different places.

Assays:
[1] = system: human polyclonal IgG in CHO-S cell culture fluid; assay: Static purification of IgG from CHO cell culture supernatant on peptide-Toyopearl resins, SDS-PAGE densitometry; details: for % Purity (IgG over total proteins): lane FT (flow-through); for % Purity (IgG over total eluted proteins): lane R (pH 2.5)
Method: Measurement of IgG binding by peptide-based chromatographic adsorbents: For initial studies, 35 mg of MWRGWQ (SEQ ID NO:2)-Toyopearl, RHLGWF (SEQ ID NO:3)-Toyopearl, WQRHGI (SEQ ID NO:1)-Toyopearl, GWLHQR (SEQ ID NO:4)-Toyopearl, and HWRGWV (SEQ ID NO:18)-Toyopearl (control) resins were equilibrated in PBS pH 7.4, reaching a swollen volume of 0.1 mL, and subsequently incubated with 1 mg/mL IgG in 0.205 mg/mL CHO cell culture supernatant for 30 minutes. The resins were subsequently washed several times with PBS to remove non-specifically bound proteins. Elution was performed with 100 mM glycine buffer pH 2.5. Flowthrough and elution fractions were collected and analyzed by SDS PAGE under reducing conditions. The resulting gels were stained with Coomassie staining. Further, 25 mg of the adsorbents MWRGWQ (SEQ ID NO:2)-Toyopearl, NIFRGWQ (SEQ ID NO:21)-Toyopearl, MWRAWQ (SEQ ID NO:5)-Toyopearl, MWRGFQ (SEQ ID NO:7)-Toyopearl, MWRGWN (SEQ ID NO:22)-Toyopearl, (NorL) WRGWQ (SEQ ID NO:23)-Toyopearl, MGRGWQ (SEQ ID NO:24)-Toyopearl, MWRWQ (SEQ ID NO:6)-Toyopearl, MWRGGQ (SEQ ID NO:26)-Toyopearl, GWRGWQ (SEQ ID NO:8)-Toyopearl, WQRHGI (SEQ ID NO:1)-Toyopearl, WNRHGI (SEQ ID NO:12)-Toyopearl, WQRAGI (SEQ ID NO:28)-Toyopearl, WQRHAI (SEQ ID NO:11)-Toyopearl, WQRHGL (SEQ ID NO:9)-Toyopearl, FQRHGI (SEQ ID NO:29)-Toyopearl, and WQRHGV (SEQ ID NO:10)-Toyopearl resins were equilibrated in PBS pH 7.4, reaching a swollen volume of 0.1 mL, and subsequently incubated with 1 mg/mL IgG in PBS at pH 7.4 for 30 minutes. The amount of unbound IgG in the supernatant samples was quantified by Bradford assay and utilized to determine the IgG binding % by the peptide variants.
Characterization of IgG-binding peptide variants WQRHGI (SEQ ID NO:1), MWRGWQ (SEQ ID NO:2), RHLGWF (SEQ ID NO:3), and GWLHQR (SEQ ID NO:4) in competitive conditions: The four selected sequence variants were tested for their ability to purify human IgG from a CHO cell culture supernatant and found largely to mirror their in silico predictions. Even though they seemed to underperform in silico, RHLGWF (SEQ ID NO:3) and GWLHQR (SEQ ID NO:4) were tested alongside WQRHGI (SEQ ID NO:1) and MWRGWQ (SEQ ID NO:2) in these conditions in order to confirm their ability to bind IgG and examine their selectivity as predicted in silico. The feedstock was prepared by spiking human polyclonal IgG into a clarified null CHO-S cell culture fluid to obtain an IgG concentration of 1 mg/mL and a CHO HCP concentration of 0.205 mg/mL. An aliquot of 500 μL was loaded onto each peptide adsorbent in static conditions for 30 min. Following a washing step with PBS to remove loosely bound proteins, a first elution step was conducted using 0.1 M glycine buffer pH 2.5 to remove all bound proteins. Flow through fractions and pH 2.5 elution fractions were loaded neat and analyzed by SDS PAGE (FIGS. 6A-6B). The values of IgG purity in the eluted fractions were determined by densitometric analysis of the corresponding lanes on the gels, and are reported in Table 9.

human IgG = details: reference [77], cited from earlier work
host cell protein (HCP) = details: literature value; cited from earlier work
IgG = details: optimized adsorbents, Menegatti et al. 2016; cited from earlier work

HWRGWV [reference compound]
% Purity (IgG over total proteins) ([1]; Gel A): 100.00% | % Purity (IgG over total eluted proteins) ([1]; Gel A): 97.81% | % Purity (IgG over total proteins) ([1]; Gel B): 45.40% | % Purity (IgG over total eluted proteins) ([1]; Gel B): 93.79% | DBC at 10% breakthrough (human IgG; residence time 2 min): 25 mg IgG/mL resin | DBC at 10% breakthrough (human IgG; residence time 5 min): 36 mg IgG/mL resin | HCP LRV (host cell protein (HCP)): 1.6 | binding capacity (IgG): up to 91.5 mg of IgG per mL of adsorbent
